Legend:
[1] = tested on: human hormone-resistant prostatic cancer (PC-3); experiment: Example 9: FK330 with paclitaxel in PC-3 tumor-bearing mice; type: in vivo, nude mice; conditions: FK330 100 mg/kg bid p.o. + paclitaxel 10 mg/kg/day i.v. multicycle
Protocol: The dose of FK330 is expressed in terms of the weight of a simple substance (non-hydrate). Paclitaxel was purchased from LC Laboratories, Inc. (Woburn, Mass., USA), and was used as paclitaxel.
FK330 was suspended (20 mg/mL) in a 0.5% aqueous methyl cellulose solution (0.5% MC), and was orally administered. Paclitaxel was prepared into a stock solution at 10 mg/mL with an ethanol/cremophor solution (mixed at 1:1), and then the stock solution was diluted to 1 mg/mL with physiological saline for injection (Otsuka Pharmaceutical Group) immediately before administration and was intravenously administered through the tail vein.
Human hormone-resistant prostatic cancer-derived PC-3 (CRL-1435) was obtained from American Type Culture Collection (VA, USA). […]
The body weight and the tumor diameter, determined by using a digital caliper, were measured twice a week. The tumor volume was calculated from the calculation formula for ellipsoid volume of (major axis×[minor axis]^2×0.5).
The results are expressed as the mean value (Mean)±standard error (SEM). […] Using the actual measured values of the tumor volume at each measurement time point, an unpaired statistical test (Student's t-test) of the difference between two groups was carried out between a single administration group and a combination use group. […]

[2] = tested on: renal ischemia/reperfusion injury; conditions: reported in Non-Patent Documents 3 and 4; cited from earlier work
[3] = tested on: chronic rejection, rat aorta transplantation; conditions: reported in Non-Patent Document 2; cited from earlier work
[4] = tested on: ischemia/reperfusion injury in rat liver transplantation; conditions: reported in Non-Patent Documents 3 and 4; cited from earlier work

Question: Which results are given for `O=C(/C=C/c1ccc(Cl)cc1)N[C@@H](Cc1ccccn1)C(=O)NCC(=O)N1CCC(Oc2cc(C(F)(F)F)ncn2)CC1` [FK330, N^2-[(2E)-3-(4-chlorophenyl)-2-propenoyl]-N-[2-oxo-2-(4-{[6-(trifluoromethyl)pyrimidin-4-yl]oxy}piperidin-1-yl)ethyl]-3-pyridin-2-yl-L-alaninamide]?
Answer: tumor volume reduction ratio compared with the paclitaxel-only group ([1]; Day 30, P<0.05): 63.1%; tumor volume reduction ratio compared with the paclitaxel-only group ([1]; Day 55, P<0.001): 72.1%; efficacy for monkey renal ischemia/reperfusion injury [2]: effective; efficacy in chronic rejection model for rat aorta transplantation [3]: effective; efficacy for ischemia/reperfusion injury in rat liver transplantation [4]: effective

— patent publication US20140066385A1, “METHOD FOR TREATING CANCER BY COMBINED USE OF DRUGS” (Astellas Pharma Inc., priority 2011, published 2014)
